The term inhibition denotes how much of the control response was suppressed.

Where two headings read alike, the source gives them in different places.

The target in one series is CYP2C9 (Homo sapiens, UniProt P11712). The experiment in a line: in vitro. An excerpt:
Assay 4: CYP450 Inhibition

A short description of series [1]: Metabolic stability of test compounds (HLM15'). The class given is in vitro ADME, human. Particulars: for recovery at 15 min, 5 μM: read-out: Metabolic stability (HLM, % recovery after 15'). An excerpt:
Human liver tissue is rinsed in ice-cold 0.1 M Tris-HCl (pH 7.4) buffer to wash excess blood. Tissue is then blotted dry, weighed and chopped coarsely using surgical scissors. The tissue pieces are homogenized in 3 volumes of ice-cold 0.1 M phosphate buffer (pH 7.4) using either a Potter-S (Braun, Italy) equipped with a Teflon pestle or a Sorvall Omni-Mix homogenizer, for 7×10 sec. In both cases, the vessel is kept in/on ice during the homogenization process. Tissue homogenates are centrifuged at 9000×g for 20 min at 4° C. using a Sorvall centrifuge or Beckman Ultracentrifuge. The resulting supernatant can be stored at −80° C. and is designated ‘S9’. The S9 fraction is centrifuged at 100,000×g for 60 min at 4° C. using a Beckman ultracentrifuge. The resulting supernatant is carefully aspirated, aliquoted and designated ‘cytosol’. The pellet is re-suspended in 0.1 M phosphate buffer (pH 7.4) in a final volume of 1 ml per 0.5 g original tissue weight and designated ‘microsomes’. All sub-cellular fractions are aliquoted, immediately frozen in liquid nitrogen and stored at −80° C. until use.
Heat-inactivated (10 min at 95° C.) ‘S9’ or microsomes were used for blank experiments. […] The reaction was incubated for 0 or 15 min. Next, the reaction was stopped by addition of 2 volumes of DMSO (or acetonitrile). Samples were centrifuged (10 min, 900×g) and analyzed by LC-MS.

The subject of a further series is MT4 CMV-EGFP cells. The experiment in a line: Toxicity, mock-infected MT4 CMV-EGFP cells. In kind it is cell-based, human. From the text:
(§1) Assay 1 &2: Antiviral Activity/Toxicity
(§2) Analogously, MT4 cells are engineered with GFP and the constitutional cytomegalovirus (CMV) promotor. […] Cytotoxic investigational compounds reduce GFP levels of mock-infected MT4 CMV-EGFP cells.
(§3) The ratio of CC50 to EC50 is defined as the selectivity index (SI) and is an indication of the selectivity of the anti-HIV activity of the inhibitor. The ultimate monitoring of HIV-1 infection and cytotoxicity is done using a scanning microscope. Image analysis allows very sensitive detection of viral infection. Measurements are done before cell necrosis, which usually takes place about five days after infection, in particular measurements are performed three days after infection.
(§4) A pEC50 value corresponds to −log10(EC50). A pCC50 value corresponds to −log10(CC50).

Series [2] concerns wild-type HIV-1IIIB strain. The experiment in a line: Antiviral activity, MT4 LTR-EGFP cellular assay. In kind it is cell-based. Also on record: key to Antiviral activity IIIB (pEC50): pEC50 = -log10(EC50). Particulars: for EC50: read-out: Antiviral activity IIIB (pEC50) (converted). The protocol: as §1
The compounds of the present invention were tested for antiviral activity in a cellular assay, which was performed according to the following procedure.
The human T-cell line MT4 is engineered with Green Fluorescent Protein (GFP) and an HIV-specific promoter, HIV-1 long terminal repeat (LTR). This cell line is designated MT4 LTR-EGFP, and can be used for the in vitro evaluation of anti-HIV activity of investigational compounds. In HIV-1 infected cells, the Tat protein is produced which upregulates the LTR promotor and finally leads to stimulation of the GFP reporter production, allowing measuring ongoing HIV-infection fluorometrically.
as §3, §4

The nature of series [3]: Toxicity, mock-infected MT4 CMV-EGFP cells. The class given is cell-based, human. Particulars: human.
From the text: as §1, §2, §3, §4

In a further series the target is CYP2D6 (Homo sapiens, UniProt P10635). The experiment in a line: in vitro. Conditions: pH 7.4.
For another series, the target named is CYP2C19 (Homo sapiens, UniProt P33261). The experiment in a line: in vitro. Particulars: E. coli expressed CYP2C19, pH 7.4, probe CEC 25 μM.
[4] abbreviates: human liver microsomes 1 mg/ml, 5 μM test compound, 15 min.
Setting [5] is: wild-type HIV-1 IIIB, MT4 LTR-EGFP cells, three days after infection.
The mark [6] stands for this setting: pH 7.4, human liver microsomes 1 mg/ml, 5 μM test compound, 15 min.
Where [7] appears, read: mock-infected MT4 CMV-EGFP cells, read-out: Toxicity MT4 (pCC50) (converted).
Setting [8] is: Human immunodeficiency virus 1, 72 h, wild-type HIV-1 IIIB, MT4 LTR-EGFP cells, three days after infection.

Chain of CYP2C9 (P11712 whole entry): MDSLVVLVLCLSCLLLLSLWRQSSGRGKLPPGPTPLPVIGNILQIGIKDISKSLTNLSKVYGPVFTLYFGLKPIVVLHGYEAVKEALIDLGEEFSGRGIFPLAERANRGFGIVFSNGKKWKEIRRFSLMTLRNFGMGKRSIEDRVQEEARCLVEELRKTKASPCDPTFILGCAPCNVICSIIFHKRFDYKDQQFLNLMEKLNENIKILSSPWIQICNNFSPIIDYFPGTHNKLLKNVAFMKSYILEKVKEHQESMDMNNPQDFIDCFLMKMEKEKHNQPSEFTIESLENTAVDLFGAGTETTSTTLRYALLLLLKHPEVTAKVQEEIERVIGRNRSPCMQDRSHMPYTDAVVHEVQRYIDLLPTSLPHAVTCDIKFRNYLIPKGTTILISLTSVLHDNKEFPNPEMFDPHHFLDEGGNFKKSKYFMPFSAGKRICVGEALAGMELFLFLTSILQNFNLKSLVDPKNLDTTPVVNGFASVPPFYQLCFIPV
Chain of CYP2C19 (P33261 whole entry): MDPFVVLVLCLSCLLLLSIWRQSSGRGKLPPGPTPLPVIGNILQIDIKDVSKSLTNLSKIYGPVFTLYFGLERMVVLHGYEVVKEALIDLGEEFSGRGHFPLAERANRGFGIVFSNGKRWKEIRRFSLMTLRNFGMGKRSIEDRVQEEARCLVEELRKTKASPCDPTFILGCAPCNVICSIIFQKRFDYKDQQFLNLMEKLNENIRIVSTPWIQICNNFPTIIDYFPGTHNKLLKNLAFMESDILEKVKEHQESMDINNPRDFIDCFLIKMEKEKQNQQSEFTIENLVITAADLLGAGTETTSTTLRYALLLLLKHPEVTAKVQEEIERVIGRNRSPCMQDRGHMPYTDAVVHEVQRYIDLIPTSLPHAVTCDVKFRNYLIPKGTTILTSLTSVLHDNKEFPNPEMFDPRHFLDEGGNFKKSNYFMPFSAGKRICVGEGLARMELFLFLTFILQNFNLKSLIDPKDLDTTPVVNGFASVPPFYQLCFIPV
Chain of CYP2D6 (P10635 whole entry): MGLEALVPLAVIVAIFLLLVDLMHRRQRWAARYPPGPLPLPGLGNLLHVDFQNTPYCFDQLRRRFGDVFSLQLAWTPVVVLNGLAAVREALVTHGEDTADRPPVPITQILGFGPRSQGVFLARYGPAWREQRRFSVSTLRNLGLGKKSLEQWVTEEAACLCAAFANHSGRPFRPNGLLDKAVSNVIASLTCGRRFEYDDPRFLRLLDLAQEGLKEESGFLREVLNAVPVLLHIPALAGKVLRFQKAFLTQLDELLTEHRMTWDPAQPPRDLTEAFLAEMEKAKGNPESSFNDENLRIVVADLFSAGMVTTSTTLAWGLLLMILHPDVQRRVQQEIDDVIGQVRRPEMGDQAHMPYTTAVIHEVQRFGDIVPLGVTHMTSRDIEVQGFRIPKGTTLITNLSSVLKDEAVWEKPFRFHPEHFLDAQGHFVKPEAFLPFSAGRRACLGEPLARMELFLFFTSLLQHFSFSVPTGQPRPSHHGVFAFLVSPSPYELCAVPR
Description for CYP2C19: (§5) Inhibition of the metabolism of test compounds by different CYP P450 isoenzymes was determined using E. coli expressed proteins (3A4, 2C9, 2D6, 1A2, and 2C19) that convert their specific substrates into a fluorescent molecule (Table 6). This fluorescent molecule was measured using a fluorescent plate reader (Victor2 (Wallac) or Fluoroskan (Labsystems)). […] CYP P450 enzymes were prepared in house or commercially bought and stored at −80° C.
(§6) The assay was performed in black 96 well Costar plates. Test compounds were added to a CYP P450 enzyme solution in the presence of an NADPH generating system. After 5 min of preincubation at 37° C., the freshly prepared, phosphate buffered (pH 7.4) substrate solution was added. Known CYP P450 inhibitors were used as positive controls, negative controls were run without CYP P450 enzyme. […] Reaction mixtures were incubated at 37° C. for 30 min (CYP3A4-BFC), 30 min (CYP3A4-BQ), 10 min (CYP3A4-DBF), 15 min (CYP1A2-CEC), 30 min (CYP2C9-MFC, CYP2C19-CEC), or 45 min (CYP2D6-AMMC), respectively. Then, the reaction was stopped by the addition of 200 μl acetonitrile, and the fluorescent signal was detected.
(§7) Calculation of CYP P450 isoenzyme inhibition (% inh.):
(§8) % activity=(100/(average positive control−average negative control))×(average sample−average negative control)
Description for CYP2D6: as §5, §6, §7, §8

For `CCN(C)c1nc2ccc(C(=O)N(CC(C)C)C[C@@H](O)[C@H](Cc3ccccc3)NC(=O)OCc3ccc4c(c3)OCO4)cc2o1` [Compound C36], the “Cyp450 inhibition: CDNA-CYP2C9-MFC (% inhibition)” value (“Cyp450 inhibition … (% inhibition)” for short) on CYP2C9 worked out at 84%. For the same compound, the “Metabolic stability (HLM, % recovery after 15')” value in series [1] (setting [4]) turned out to be 62%. In the series on MT4 CMV-EGFP cells, the “Toxicity MT4 (pCC50)” value is recorded as “=4.57”. Moreover, the “Antiviral activity IIIB (pEC50)” value in series [2] (setting [5]) is “=4.79”.
On the same counts, the results for `CCN(C)c1nc2ccc(C(=O)N(CCN(C)C)C[C@@H](O)[C@H](Cc3ccccc3)NC(=O)OCc3cncs3)cc2o1` [Compound C11] are 29%, 57%, less than 4.00 and less than 4.00.
As for `CC(C)CN(C[C@@H](O)[C@H](Cc1ccccc1)NC(=O)OCc1cncs1)C(=O)c1ccc2ncn(C(C)C)c2c1` [Compound C14], the “Cyp450 inhibition … (% inhibition)” value at CYP2C9 is recorded as 93%. For the same compound, in series [1] (setting [4]), the “Metabolic stability (HLM, % recovery after 15')” value came out at 60%. The “Toxicity MT4 (pCC50)” value with MT4 CMV-EGFP cells is less than 4.00. Also, in series [2] (setting [5]), the “Antiviral activity IIIB (pEC50)” value is listed as less than 4.00.
With `CC(C)CN(C[C@@H](O)[C@H](Cc1ccccc1)NC(=O)OCc1cncs1)C(=O)c1ccc2nc(C(C)C)oc2c1` [Compound C45, Thiazol-5-ylmethyl (2S,3R)-3-hydroxy-4-(N-isobutyl-2-isopropylbenzo[d]-oxazole-6-carboxamido)-1-phenylbutan-2-ylcarbamate], in series [1] (setting [6]), the recovery at 15 min, 5 μM was 68%. The CC50 at 3 days in series [3] (setting [7]) is 42.7 µM. Also, at CYP2D6, the inhibition at 45 min, 10 μM amounted to 44%. At CYP2C19, this compound yielded an inhibition at 30 min, 10 μM of 89%. Besides, in series [2] (setting [8]), the EC50 was 44.7 µM.
Turning to `CCN(C)c1nc2ccc(C(=O)N(CC(C)C)C[C@H](O)[C@H](Cc3ccccc3)NC(=O)OCc3cncs3)cc2o1` [Compound C52, Thiazol-5-ylmethyl (2S,3S)-4-(2-(ethyl(methyl)amino)-N-isobutylbenzo[d]-oxazole-6-carboxamido)-3-hydroxy-1-phenylbutan-2-ylcarbamate], the recovery at 15 min, 5 μM in series [1] (setting [6]) was found to be 63%. In series [3], this compound gave a CC50 of 44.7 µM. Moreover, in series [2] (setting [8]), the EC50 was 44.7 µM.
For the compound `CC(C)CN(C[C@@H](O)[C@H](Cc1ccccc1)NC(=O)OCc1cncs1)C(=O)c1ccc2nc(NCCCN(C)C)oc2c1` [Compound C23], the “Cyp450 inhibition … (% inhibition)” value on CYP2C9 was determined as 28%. For the same compound, in series [1] (setting [4]), the “Metabolic stability (HLM, % recovery after 15')” value stood at 59%. Also, in the series on MT4 CMV-EGFP cells, the “Toxicity MT4 (pCC50)” value is less than 4.00. Further, the “Antiviral activity IIIB (pEC50)” value in series [2] (setting [5]) was “=4.22”.
On the same counts, the results for `CCN(C)c1nc2ccc(C(=O)N(C[C@@H](O)[C@H](Cc3ccccc3)NC(=O)OCc3cncs3)CC(C)(C)C)cc2o1` [Compound C43] are 97%, 67%, “=4.34” and “=4.32”.
With `CC(C)CN(C[C@@H](O)[C@H](Cc1cccnc1)NC(=O)OCc1cncs1)C(=O)c1ccc2ncsc2c1` [Compound C55, Thiazol-5-ylmethyl (2S,3R)-3-hydroxy-4-(N-isobutylbenzo[d]thiazole-6-carboxamido)-1-(pyridin-3-yl)butan-2-ylcarbamate], in series [3] (setting [7]), the CC50 at 3 days was greater than 100 µM. Moreover, the EC50 in series [2] (setting [8]) is greater than 100 µM.
With `C#CCN(C)c1nc2ccc(C(=O)N(CC(C)C)C[C@@H](O)[C@H](Cc3ccccc3)NC(=O)OCc3cncs3)cc2o1` [Compound C50], the “Metabolic stability (HLM, % recovery after 15')” value in series [1] (setting [4]) turned out to be 72%. Moreover, the “Toxicity MT4 (pCC50)” value in the series with MT4 CMV-EGFP cells (mock-infected MT4 CMV-EGFP cells) is listed as “=4.32”. Moreover, in series [2] (setting [5]), the “Antiviral activity IIIB (pEC50)” value is given as “=4.32”.
`CC(C)CN(C[C@@H](O)[C@H](Cc1ccccc1)NC(=O)OCc1cncs1)C(=O)c1ccc2nc(N(C)CCN(C)C)oc2c1` [Compound C24]: the “Metabolic stability (HLM, % recovery after 15')” value in series [1] came out at 57%. Besides, the “Toxicity MT4 (pCC50)” value with MT4 CMV-EGFP cells is listed as less than 4.00. For the same compound, the “Antiviral activity IIIB (pEC50)” value in series [2] was “=4.20”.
In turn, `CCN(C[C@@H](O)[C@H](Cc1ccccc1)NC(=O)OCc1cncs1)C(=O)c1ccc2nc(N3CCCC3)oc2c1` [Compound C30, Thiazol-5-ylmethyl (2S,3R)-4-(N-ethyl-2-(pyrrolidin-1-yl)benzo[d]oxazole-6-carboxamido)-3-hydroxy-1-phenylbutan-2-ylcarbamate] registered a recovery in series [1] (human, pH 7.4) of 80%. In addition, the CC50 in series [3] came out at 72.4 µM. For the same compound, the EC50 in series [2] (Human immunodeficiency virus 1, IIIB, 72 h) is 69.2 µM.
As for `CC(C)CN(C[C@@H](O)[C@H](Cc1ccccc1)NC(=O)OCc1cncs1)C(=O)c1ccc2nc(N)oc2c1` [Compound C22], in series [1], the “Metabolic stability (HLM, % recovery after 15')” value stood at 72%. Moreover, the “Toxicity MT4 (pCC50)” value in the series with MT4 CMV-EGFP cells was less than 4.00. Besides, the “Antiviral activity IIIB (pEC50)” value in series [2] is less than 4.00.
On to `CC(C)CN(C[C@@H](O)[C@H](Cc1ccccc1)NC(=O)OCc1cncs1)C(=O)c1ccc2nc(NCCCn3ccnc3)oc2c1` [Compound C46], for which the “Cyp450 inhibition … (% inhibition)” value on CYP2C9 turned out to be 90%. Besides, the “Metabolic stability (HLM, % recovery after 15')” value in series [1] (setting [4]) was 92%. For the same compound, the “Toxicity MT4 (pCC50)” value with MT4 CMV-EGFP cells is less than 4.00. Also, in series [2] (setting [5]), the “Antiviral activity IIIB (pEC50)” value is recorded as “=4.06”.
Taken in the same sequence, the figures for `CCN(C)c1nc2ccc(C(=O)N(CCN3CCOCC3)C[C@@H](O)[C@H](Cc3ccccc3)NC(=O)OCc3cncs3)cc2o1` [Compound C18] were 53%, 64%, less than 4.00 and less than 4.00.
Taken in the same sequence, the figures for `CCN(C)c1nc2ccc(C(=O)N(CCN3CCCC3)C[C@@H](O)[C@H](Cc3ccccc3)NC(=O)OCc3cncs3)cc2o1` [Compound C12] were 34%, 69%, less than 4.00 and less than 4.00.
Take `CCN(C)c1nc2ccc(C(=O)N(CC(C)C)C[C@@H](O)[C@H](Cc3ccccc3)NC(=O)OCc3cncs3)cc2o1` [Compound C1, Thiazol-5-ylmethyl (2S,3R)-4-(2-(ethyl(methyl)amino)-N-isobutylbenzo[d]-oxazole-6-carboxamido)-3-hydroxy-1-phenylbutan-2-ylcarbamate]: in series [1] (setting [6]), the recovery at 15 min, 5 μM turned out to be 71%. Also, in series [3], the CC50 at 3 days is greater than 81.3 µM. Also, the EC50 in series [2] (setting [8]) was 70.8 µM.
Consider `CC(C)CN(C[C@@H](O)[C@H](Cc1ccccc1)NC(=O)OCc1cncs1)C(=O)c1ccc2nc(N3CCOCC3)oc2c1` [Compound C5], for which, at CYP2C9, the “Cyp450 inhibition … (% inhibition)” value was 95%. Moreover, the “Metabolic stability (HLM, % recovery after 15')” value in series [1] (setting [4]) is 67%. In the series on MT4 CMV-EGFP cells, the “Toxicity MT4 (pCC50)” value is “=4.06”. Besides, the “Antiviral activity IIIB (pEC50)” value in series [2] (setting [5]) is less than 4.00.
Taken in the same sequence, the figures for `CCN(C)c1nc2ccc(C(=O)N(CC(C)C)C[C@@H](O)[C@H](Cc3ccccc3)NC(=O)OCc3cccnc3)cc2o1` [Compound C9] were 91%, 65%, “=4.24” and “=4.32”.
In the case of `CCN(C)c1nc2ccc(C(=O)N(CC(C)C)C[C@@H](O)[C@H](Cc3cccnc3)NC(=O)OCc3cncs3)cc2o1` [Compound C54, Thiazol-5-ylmethyl (2S,3R)-4-(2-(ethyl(methyl)amino)-N-isobutylbenzo[d]-oxazole-6-carboxamido)-3-hydroxy-1-(pyridin-3-yl)butan-2-ylcarbamate], the CC50 at 3 days in series [3] (setting [7]) is greater than 100 µM. The EC50 in series [2] (setting [8]) is greater than 100 µM.

The values above are taken from patent US8350048B2, “Amide compounds as boosters of antivirals” (Janssen R&D Ireland, priority 2007, dated 2013).
